Experimental data reported in PMC9014415, “Repositioning of a Diaminothiazole Series Confirmed to Target the Cyclin-Dependent Kinase CRK12 for Use in the Treatment of African Animal Trypanosomiasis” (Journal of Medicinal Chemistry, 2022).

What was measured:
[1] = Bovine hepatocyte stability; format: in vitro ADME; details: intrinsic clearance
Method: collagen coated cell culture plates for 10 minutes at 37 °C, 5% CO2. Upon addition of an equal volume of supplemented WME containing 1 µM test compound, an aliquot of incubation solution was removed to acetonitrile containing internal standard (final concentration 0.5 µM test compound and a cell density of 0.25 million cells/mL). Similarly, aliquots were removed at 3, 6, 9, 15, 30, 45, 60, 90 and 120 min. 100 µL of 80:20 water:acetonitrile was added to all samples and the analysis plate was centrifuged (10 min, 1,665 g, RT) prior to injection and analysis of samples by UPLC-MS/MS. The response (area ratio of test compound relative to internal standard) was plotted against time using an exponential decay model and rate of disappearance calculated. Hepatocyte CLint (mL/min/10^6 cells) was scaled to in vivo CLint (ml/min/g Liver) using the hepato-cellularity scaling factor of 120 x […]
(b) Bovine hepatocyte stability. Freshly isolated female bovine (Prim’Holstein) hepatocytes were supplied by Biopredic InternationalTM. […]
of 80:20 water:acetonitrile was added to all samples and the analysis plate was centrifuged (10 min, 1,665 g, RT) prior to injection and analysis of samples by UPLC-MS/MS. The response (area ratio of test compound to internal standard) was plotted against time using an exponential decay model and rate of disappearance calculated. […]

[2] = in vivo
[3] = in vivo; details: NMRI, mouse
Method: 2.4 Protein plasma binding
This was determined as previously described.6
2.5 PK and maximum tolerated dose - mouse
PK studies in female NMRI mice (Figure S1): Test compounds 1, 2 and 10 were dosed SC at 10 mg free base/kg (dose volume 10 mL/kg; dose vehicle: 5% (v/v) DMSO, 40% polyethylene glycol 400 (PEG400) and 55% deionized water) to female NMRI mice (n = 3). Blood samples (10 μL) were taken from each mouse at 0.08, 0.25, 0.5, 1, 2, 4, 6, 8 h post dose (24 h post dose for compounds 2 and 10 only) and mixed with two volumes of deionized water (20 μL). Alternatively, compound 2 was delivered for 48 h via SC implanted ALZET osmotic pumps (10, 25 and 50 mg free base/mL, vehicle: 50% DMSO and 50% deionized water) to the female NMRI mouse (n = 3). Blood samples (10 μL) from each mouse were taken at 1, 3, 6, 24, 30 and 48 h post-dose and mixed with two volumes of deionized water (20 μL). […]
Response to treatment was determined by monitoring parasitaemia twice a week until day 21. […]
In each of the cattle efficacy studies (3.3, 3.4 and 3.5), efficacy was assessed primarily on absence of recrudescence of parasitaemia for 100 days after treatment administration together with improvements in Packed Cell Volume, body weight and clinical signs of infected compared with uninfected animals. […]

| Compound | Bovine Hepatocyte Cli [1] | Mouse oral MTD ([2]; po, 3 days) | Tolerability, maximum tolerated dose study ([2]; mouse, sc) | Cmax [3] |
| --- | --- | --- | --- | --- |
| CC(C)CS(=O)(=O)N[C@H]1CC[C@H](Nc2nc(N)c(C(=O)c3c(F)cccc3F)s2)CC1 [Compound 1, N-((trans)-4-((4-Amino-5-(2,6-difluorobenzoyl)thiazol-2-yl)amino)cyclohexyl)-2-methylpropane-1-sulfonamide] | <0.5 / 0.5 mL/min/g | >300 mg/kg | No tolerability issues |  |
| CC(C)CS(=O)(=O)N[C@H]1CC[C@H](Nc2nc(N)c(C(=O)c3c(F)cc(CN(C)C)cc3F)s2)CC1 [Compound 2, N-(trans)-[4-[[4-Amino-5-[4-(dimethylaminomethyl)-2,6-difluoro-benzoyl]thiazol-2-yl]amino]cyclohexyl]-2-methyl-propane-1-sulfonamide] |  |  |  | 34 to 65 ng/mL |
